ChEMBL document CHEMBL3885861, “Open TG-GATES”

Species on record: Rattus norvegicus
Assay: Open TG-GATES - Regimen: Single
Format: toxicity, organism-based, Sprague-Dawley
Set-up: regimen Single, gender Male, age 6 weeks
Conditions: in vivo, po, route gavage; for Bas / Eos / Fbg / Hb / Ht / Lym / MCH / MCHC / MCV / Mono / Neu / PT / Plat / RBC / Ret / WBC: tissue Blood; for KIDNEY_L / KIDNEY_R / KIDNEY_TOTAL: tissue Kidney; for LIVER: tissue Liver; for ALP / ALT / AST / BUN / CRE / Ca / Cl / DBIL / GLC / IP / K / LDH / Na / PL / RALB / TBIL / TC / TG / TP / gamma-GTP: tissue Plasma
[1] = 150 mg/kg, 3 h, dose level Middle
[2] = 150 mg/kg, 6 h, dose level Middle
[3] = 150 mg/kg, 9 h, dose level Middle
[4] = 150 mg/kg, 24 h, dose level Middle

CN(C)CCCN1c2ccccc2Sc2ccc(Cl)cc21 [CHLORPROMAZINE]
TERMINAL_BW (45 mg/kg, 9 h, dose level Low): 211.4 g | Bas (45 mg/kg, 9 h, dose level Low): 0% | Eos (45 mg/kg, 9 h, dose level Low): 1% | Fbg (45 mg/kg, 9 h, dose level Low): 219.2 mg/dL | Hb (45 mg/kg, 9 h, dose level Low): 12.8 g/dL | Ht (45 mg/kg, 9 h, dose level Low): 37.4% | Lym (45 mg/kg, 9 h, dose level Low): 76.6% | MCH (45 mg/kg, 9 h, dose level Low): 21.4 pg | MCHC (45 mg/kg, 9 h, dose level Low): 34.1% | MCV (45 mg/kg, 9 h, dose level Low): 62.7 fL | Mono (45 mg/kg, 9 h, dose level Low): 2.8% | Neu (45 mg/kg, 9 h, dose level Low): 18.8% | PT (45 mg/kg, 9 h, dose level Low): 12.3 s | Plat (45 mg/kg, 9 h, dose level Low): 128.5 x10_4/uL | RBC (45 mg/kg, 9 h, dose level Low): 596.6 x10_4/ul | Ret (45 mg/kg, 9 h, dose level Low): 8% | WBC (45 mg/kg, 9 h, dose level Low): 53.8 x10_2/uL | KIDNEY_L (45 mg/kg, 9 h, dose level Low): 0.9 g | KIDNEY_R (45 mg/kg, 9 h, dose level Low): 0.9 g | KIDNEY_TOTAL (45 mg/kg, 9 h, dose level Low): 1.8 g | LIVER (45 mg/kg, 9 h, dose level Low): 9.1 g | ALP (45 mg/kg, 9 h, dose level Low): 807.4 IU/L | ALT (45 mg/kg, 9 h, dose level Low): 28.2 IU/L | AST (45 mg/kg, 9 h, dose level Low): 63.2 IU/L | BUN (45 mg/kg, 9 h, dose level Low): 9.4 mg/dL | CRE (45 mg/kg, 9 h, dose level Low): 0.4 mg/dL | Ca (45 mg/kg, 9 h, dose level Low): 10.4 mg/dL | Cl (45 mg/kg, 9 h, dose level Low): 106.4 meq/L | DBIL (45 mg/kg, 9 h, dose level Low): 0.07 mg/dL | GLC (45 mg/kg, 9 h, dose level Low): 263.8 mg/dL | IP (45 mg/kg, 9 h, dose level Low): 9.6 mg/dL | K (45 mg/kg, 9 h, dose level Low): 3.6 meq/L | LDH (45 mg/kg, 9 h, dose level Low): 215.6 IU/L | Na (45 mg/kg, 9 h, dose level Low): 143.4 meq/L | PL (45 mg/kg, 9 h, dose level Low): 147.2 mg/dL | RALB (45 mg/kg, 9 h, dose level Low): 3.4 g/dL | TBIL (45 mg/kg, 9 h, dose level Low): 0.1 mg/dL | TC (45 mg/kg, 9 h, dose level Low): 84.4 mg/dL | TG (45 mg/kg, 9 h, dose level Low): 14 mg/dL | TP (45 mg/kg, 9 h, dose level Low): 5.6 g/dL | gamma-GTP (45 mg/kg, 9 h, dose level Low): 0.8 IU/L | TERMINAL_BW (45 mg/kg, 24 h, dose level Low): 211.2 g | Bas (45 mg/kg, 24 h, dose level Low): 1% | Eos (45 mg/kg, 24 h, dose level Low): 0.8% | Fbg (45 mg/kg, 24 h, dose level Low): 213.6 mg/dL | Hb (45 mg/kg, 24 h, dose level Low): 14.3 g/dL | Ht (45 mg/kg, 24 h, dose level Low): 42% | Lym (45 mg/kg, 24 h, dose level Low): 77.8% | MCH (45 mg/kg, 24 h, dose level Low): 21.7 pg | MCHC (45 mg/kg, 24 h, dose level Low): 33.9% | MCV (45 mg/kg, 24 h, dose level Low): 64.1 fL | Mono (45 mg/kg, 24 h, dose level Low): 2.4% | Neu (45 mg/kg, 24 h, dose level Low): 17.6% | PT (45 mg/kg, 24 h, dose level Low): 11.7 s | Plat (45 mg/kg, 24 h, dose level Low): 137.7 x10_4/uL | RBC (45 mg/kg, 24 h, dose level Low): 656.8 x10_4/ul | Ret (45 mg/kg, 24 h, dose level Low): 7.5% | WBC (45 mg/kg, 24 h, dose level Low): 87 x10_2/uL | KIDNEY_L (45 mg/kg, 24 h, dose level Low): 1 g | KIDNEY_R (45 mg/kg, 24 h, dose level Low): 1 g | KIDNEY_TOTAL (45 mg/kg, 24 h, dose level Low): 2 g | LIVER (45 mg/kg, 24 h, dose level Low): 9.2 g | ALP (45 mg/kg, 24 h, dose level Low): 861 IU/L | ALT (45 mg/kg, 24 h, dose level Low): 35.8 IU/L | AST (45 mg/kg, 24 h, dose level Low): 84 IU/L | BUN (45 mg/kg, 24 h, dose level Low): 21.8 mg/dL | CRE (45 mg/kg, 24 h, dose level Low): 0.5 mg/dL | Ca (45 mg/kg, 24 h, dose level Low): 10.7 mg/dL | Cl (45 mg/kg, 24 h, dose level Low): 104.6 meq/L | DBIL (45 mg/kg, 24 h, dose level Low): 0.062 mg/dL | GLC (45 mg/kg, 24 h, dose level Low): 217.8 mg/dL | IP (45 mg/kg, 24 h, dose level Low): 8.9 mg/dL | K (45 mg/kg, 24 h, dose level Low): 3.8 meq/L | LDH (45 mg/kg, 24 h, dose level Low): 239.4 IU/L | Na (45 mg/kg, 24 h, dose level Low): 144 meq/L | PL (45 mg/kg, 24 h, dose level Low): 132.2 mg/dL | RALB (45 mg/kg, 24 h, dose level Low): 3.7 g/dL | TBIL (45 mg/kg, 24 h, dose level Low): 0.1 mg/dL | TC (45 mg/kg, 24 h, dose level Low): 70.8 mg/dL | TG (45 mg/kg, 24 h, dose level Low): 76.4 mg/dL | TP (45 mg/kg, 24 h, dose level Low): 5.9 g/dL | gamma-GTP (45 mg/kg, 24 h, dose level Low): 1 IU/L | TERMINAL_BW [1]: 221.2 g | Bas [1]: 0% | Eos [1]: 0.8% | Fbg [1]: 211.2 mg/dL | Hb [1]: 12.6 g/dL | Ht [1]: 37.6% | Lym [1]: 73.4% | MCH [1]: 21.3 pg | MCHC [1]: 33.5% | MCV [1]: 63.4 fL | Mono [1]: 2.6% | Neu [1]: 22.2% | PT [1]: 12.4 s | Plat [1]: 120.3 x10_4/uL | RBC [1]: 593.4 x10_4/ul | Ret [1]: 8.4% | WBC [1]: 49.8 x10_2/uL | KIDNEY_L [1]: 0.9 g | KIDNEY_R [1]: 0.9 g | KIDNEY_TOTAL [1]: 1.8 g | LIVER [1]: 9.9 g | ALP [1]: 942 IU/L | ALT [1]: 33.4 IU/L | AST [1]: 71.4 IU/L | BUN [1]: 10.8 mg/dL | CRE [1]: 0.4 mg/dL | Ca [1]: 10.9 mg/dL | Cl [1]: 105.6 meq/L | DBIL [1]: 0.062 mg/dL | GLC [1]: 229.6 mg/dL | IP [1]: 10.3 mg/dL | K [1]: 3.8 meq/L | LDH [1]: 212.2 IU/L | Na [1]: 145.2 meq/L | PL [1]: 132.2 mg/dL | RALB [1]: 3.4 g/dL | TBIL [1]: 0.1 mg/dL | TC [1]: 69.8 mg/dL | TG [1]: 61.8 mg/dL | TP [1]: 5.4 g/dL | gamma-GTP [1]: 1 IU/L | TERMINAL_BW [2]: 215.2 g | Bas [2]: 0% | Eos [2]: 1% | Fbg [2]: 209.8 mg/dL | Hb [2]: 12.4 g/dL | Ht [2]: 36.4% | Lym [2]: 73% | MCH [2]: 21 pg | MCHC [2]: 34.2% | MCV [2]: 61.6 fL | Mono [2]: 2.4% | Neu [2]: 23% | PT [2]: 12.7 s | Plat [2]: 122.6 x10_4/uL | RBC [2]: 591.2 x10_4/ul | Ret [2]: 7.9% | WBC [2]: 46.9 x10_2/uL | KIDNEY_L [2]: 0.9 g | KIDNEY_R [2]: 1 g | KIDNEY_TOTAL [2]: 1.9 g | LIVER [2]: 9.4 g | ALP [2]: 685.2 IU/L | ALT [2]: 29.4 IU/L | AST [2]: 67.2 IU/L | BUN [2]: 9.4 mg/dL | CRE [2]: 0.4 mg/dL | Ca [2]: 10.4 mg/dL | Cl [2]: 105.6 meq/L | DBIL [2]: 0.064 mg/dL | GLC [2]: 246.2 mg/dL | IP [2]: 10.5 mg/dL | K [2]: 3.5 meq/L | LDH [2]: 214.6 IU/L | Na [2]: 144.4 meq/L | PL [2]: 127.6 mg/dL | RALB [2]: 3.3 g/dL | TBIL [2]: 0.1 mg/dL | TC [2]: 72.6 mg/dL | TG [2]: 26.2 mg/dL | TP [2]: 5.3 g/dL | gamma-GTP [2]: 0.8 IU/L | TERMINAL_BW [3]: 211.5 g | Bas [3]: 0% | Eos [3]: 1% | Fbg [3]: 222.4 mg/dL | Hb [3]: 12.4 g/dL | Ht [3]: 36.9% | Lym [3]: 71.8% | MCH [3]: 21.1 pg | MCHC [3]: 33.7% | MCV [3]: 62.7 fL | Mono [3]: 4% | Neu [3]: 20% | PT [3]: 12.7 s | Plat [3]: 126.5 x10_4/uL | RBC [3]: 590.6 x10_4/ul | Ret [3]: 8.3% | WBC [3]: 40.7 x10_2/uL | KIDNEY_L [3]: 0.9 g | KIDNEY_R [3]: 0.9 g | KIDNEY_TOTAL [3]: 1.8 g | LIVER [3]: 8.8 g | ALP [3]: 813.8 IU/L | ALT [3]: 29 IU/L | AST [3]: 64.2 IU/L | BUN [3]: 10.6 mg/dL | CRE [3]: 0.4 mg/dL | Ca [3]: 10.6 mg/dL | Cl [3]: 105.6 meq/L | DBIL [3]: 0.07 mg/dL | GLC [3]: 237.8 mg/dL | IP [3]: 10.8 mg/dL | K [3]: 3.6 meq/L | LDH [3]: 171.4 IU/L | Na [3]: 143.2 meq/L | PL [3]: 136.6 mg/dL | RALB [3]: 3.4 g/dL | TBIL [3]: 0.1 mg/dL | TC [3]: 81 mg/dL | TG [3]: 17.6 mg/dL | TP [3]: 5.4 g/dL | gamma-GTP [3]: 1 IU/L | TERMINAL_BW [4]: 194.9 g | Bas [4]: 0.4% | Eos [4]: 1% | Fbg [4]: 215.4 mg/dL | Hb [4]: 13.6 g/dL | Ht [4]: 39.9% | Lym [4]: 69.2% | MCH [4]: 21.3 pg | MCHC [4]: 34.2% | MCV [4]: 62.3 fL | Mono [4]: 5.2% | Neu [4]: 23.2% | PT [4]: 11.4 s | Plat [4]: 152.2 x10_4/uL | RBC [4]: 640.4 x10_4/ul | Ret [4]: 7.1% | WBC [4]: 43.7 x10_2/uL | KIDNEY_L [4]: 0.9 g | KIDNEY_R [4]: 0.9 g | KIDNEY_TOTAL [4]: 1.8 g | LIVER [4]: 7.8 g | ALP [4]: 873.2 IU/L | ALT [4]: 24.6 IU/L | AST [4]: 82 IU/L | BUN [4]: 14.2 mg/dL | CRE [4]: 0.4 mg/dL | Ca [4]: 10.5 mg/dL | Cl [4]: 104.4 meq/L | DBIL [4]: 0.072 mg/dL | GLC [4]: 239 mg/dL | IP [4]: 10.6 mg/dL | K [4]: 3.7 meq/L | LDH [4]: 257.2 IU/L | Na [4]: 144.8 meq/L | PL [4]: 138 mg/dL | RALB [4]: 3.6 g/dL | TBIL [4]: 0.1 mg/dL | TC [4]: 77.6 mg/dL | TG [4]: 21.2 mg/dL | TP [4]: 5.8 g/dL | gamma-GTP [4]: 0.8 IU/L
